Assays:
[1] = Fluorescent quantum yield (QY) measurements; type: physicochemical; conditions: for Fluorescence QY: ACN/PBS buffer (1:1 v/v); for Fluorescence quantum yield / QY: in ACN
Method in brief: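 Fluorescence quantum yield was measured for each dye by first recording the incident excitation light spectrum with 1 mL of solvent. JASCO Quantum Yield Software then computed QY as the dye's fluorescence intensity divided by the drop in incident light intensity between dye-absent and dye-present samples. A full incident excitation spectrum with this setup needs an excitation wavelength of at least 360 nm.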

[2] = Solvatochromic measurements; type: physicochemical; conditions: organic solvents of different polarity
Protocol: The remaining 850 μL solution was used to obtain fluorescence images under a handheld 365 nm UV lamp.
Solvatochromic measurements. […] The remaining 850 μL solution was used to obtain fluorescence images under a handheld 365 nm UV lamp.

[3] = Fluorescence (emission) measurements; type: physicochemical; conditions: for Emission λem: Table S12; for maximum emission wavelength (λem): 50:50 ACN/PBS, excitation at λabs;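 as to all read-outs here: fluorescence emission spectra recorded on a spectrofluorometer, with each compound excited at its own absorption maximum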
Protocol: The fluorescence spectrum of each derivative (150 μL) was measured on a Photon Technology International (PTI) QuantaMaster™ 40 fluorescence spectrometer by excitation at the maximum absorption wavelength for each compound.
The fluorescence spectrum of each derivative (150 μL) was measured on a Photon Technology International (PTJ) QuantaMaster™ 40 fluorescence spectrometer by excitation at the maximum absorption wavelength for each compound.

[4] = target: T1, αS fibrils (Homo sapiens, UniProt P37840); test: Fluorescent QY measurements with αS fibrils; type: physicochemical; conditions: for increase in QY with αS fibrils: presence versus absence of αS fibrils; for Relative Brightness: ratio of ε•QY in the presence and absence of PFFs; for increase in brightness in the presence of PFFs: αS PFFs
T1 construct: intein-His6 (C, cleaved yes); made in house; host or cells: Escherichia coli BL21
Protocol: (§1) For each QY measurement, the incident excitation light spectrum was collected with 100 μL of probes (100 μM) in PBS buffer. After measuring the incident light intensity, probes (7j-7m) were added to the αS fibrils (100 μM) from a concentrated stock solution (10 mM in DMSO) to a final concentration of 100 μM and the new spectrum (fluorescence intensity and new incident light intensity) was collected. Using the JASCO Quantum Yield Software, the dye QY was calculated by dividing the dye fluorescence intensity by the difference in incident light intensity in the presence and absence of fibrils.
as §1, with “[…]” for “μL”, “(5j and 5k)” for “(7j-7m)”

[5] = Absorbance measurements (UV-Vis); conditions: for Absorbance Wavelength: ACN:PBS buffer (50:50 v/v); for λabs, maximum absorption wavelength: absence of αS PFFs (−), dye 10 μM; for λabs: ACN/PBS
Protocol: Samples were individually diluted to the final concentration of 25 μM (500 μL) using 50:50 acetonitrile in phosphate buffered saline (ACN/PBS). The absorbance spectrum of each derivative (150 μL) was measured on a Thermo Scientific Genesys 150 UV-Vis spectrometer, using 50:50 ACN/PBS as a blank.

[6] = test system: αS fibrils versus Aβ1-42 fibrils; test: Amyloid selectivity by plate reader, αS versus Aβ1-42 fibrils; type: binding; set-up: fluorescence turn-on with αS relative to Aβ1-42: dose or concentration left out as unconfirmed; conditions: for fluorescence turn on with αS relative to Aβ1-42: 5 μM fibril concentrations, probe 1 μM
Protocol: Experiments were performed on the Tecan Spark in Greiner 96 well flat black ½ area plates using the following parameters: excitation and emission band widths 5 nm, lag time 0 μs, integration time 40 μs. A 10 mM DMSO stock solution of probes (7j-7m) and 100 μM stock of αS fibrils were used in the study described herein.

[7] = target: T1, αS fibrils; test: Probe binding (Kd) measurements with αS fibrils; conditions: 100 μM αS PFFs; probe 10 nM-10 μM
Protocol: (§2) αS fibrils (100 μM) in PBS buffer were incubated with varying 7k, 7l, and 7m concentrations (0, 0.01, 0.1, 0.5, 1, 3, 5, 7, and 10 μM) from concentrated 10 mM DMSO stock solutions in Greiner 96 well flat black […] plates at 37° C. with shaking at 500 rpm for 15 min in an IKA MS3 control orbital shaker (Wilmington, NC, USA). After 15 min incubation, fluorescence intensity measurements were obtained with a Tecan Spark plate reader (Mannedorf, Switzerland) by excitation with λex/λem=424/570 nm for 7k, λex/λem=463/580 nm for 7l, and λex/λem=484/620 nm for 7m, using the following parameters: excitation and emission bandwidth 5 nm, delay time 0 μs, integration time 40 μs. Averages and standard deviations were calculated from at least 3 independent measurements at each probe concentration. The resulting binding curve was fit to the following equation (modified from the One site—Total, accounting for ligand depletion model) in Graphpad Prism 9 (San Diego, CA, USA), from which the Kd was determined.
Fluorescence Spectra with αS Fibrils
as §2, with “5k” for “7k, 7l, and 7m”, “with” for “with λex/λem=424/570 nm for 7k,”, “5k,” for “7l, and λex/λem=484/620 nm for 7m,”

[8] = 25 μM in ACN/PBS buffer (1:1 v/v), pH 7.4
[9] = presence of αS PFFs (+), 100 μM dye and PFFs
[10] = presence of αS PFFs, 100 μM dye and PFFs
[11] = λex/λem = 435/575 nm for 5j and 463/580 nm for 5k

Compound | Fluorescence QY [1] [%] | Fluorescence quantum yield [1] [%] | QY [1] | Fluorescence quantum yield ([1]; Table S12) [%] | solvatochromism / environmental sensitivity [2] | Emission λmax ([3]; 25 μM in ACN) [nm] | Emission λmax [3, 8] [nm] | Emission λem ([3]; 25 μM in ACN) [nm] | maximum emission wavelength (λem) [3] [nm] | Stokes shift ([3]; ACN/PBS buffer (1:1 v/v)) [nm] | Stokes shift ([3]; in ACN) [nm] | Fluorescence QY ([4]; absence of αS PFFs, 100 μM dye) [%] | Fluorescence QY [4, 9] [%] | Fluorescence QY [4, 10] [%] | increase in QY with αS fibrils [4] [fold] | Relative Brightness [4] | Absorbance λmax ([5]; 25 μM in ACN) [nm] | Absorbance λmax [5, 8] [nm] | fluorescence turn on with αS relative to Aβ1-42 [6] [fold] | Kd [7] [µM] | also measured
Cc1c(C)n2c(/C=C/c3ccc(N)cc3)c(C)c(=O)n2c1=O [Compound 7j, (E)-3-(4-aminostyryl)-2,5,6-trimethyl-1H,7H-pyrazolo[1,2-a]pyrazole-1,7-dione] | 0.7 | 1.5 | 2% | 1.5 | showed sensitivity to solvent polarity | 540 | 583 | 540 | 583 | 198 | 162 | 0.17 | 20.7 | 20.7 | 122 | 364 | 378 | 385 |  |  | Relative Brightness [4, 11]: 364; increase in brightness in the presence of PFFs [4]: 364 fold; Absorbance Wavelength ([5]; Table S14): 385 nm; λabs, maximum absorption wavelength [5]: 372 nm
Cc1c(C)n2c(/C=C/c3ccc(N(C)C)cc3)c(C)c(=O)n2c1=O [Compound 7l, (E)-3-(4-(dimethylamino)styryl)-2,5,6-trimethyl-1H,7H-pyrazolo[1,2-a]pyrazole-1,7-dione] | 0.5 | 7.5 | about 7% | 7.5 | high level of solvatochromism | 568 | 604 | 568 | 604 | 186 | 166 | 0.15 | 32.7 | 32.7 | 218 | 476 | 402 | 418 | 5 | 1.45 ± 0.43 | fluorescence turn-on with αS relative to Aβ1-42 [6]: 5.2 fold; QY ([1]; listed as 5k): 7.5%; emission span across solvents (solvatochromism) [2]: 490-590 nm; Relative Brightness [4, 11]: 476; increase in brightness in the presence of PFFs [4]: 476 fold; λabs [5]: 418 nm; Absorbance Wavelength ([5]; Table S14): 418 nm; λabs, maximum absorption wavelength [5]: 393 nm
Cc1c(C)n2c(/C=C/c3ccc(N4CCOCC4)cc3)c(C)c(=O)n2c1=O [Compound 7k, (E)-2,3,6-trimethyl-5-(4-morpholinostyryl)-1H,7H-pyrazolo[1,2-a]pyrazole-1,7-dione] | 1.0 | 6.9 | about 7% |  |  | 565 | 603 |  |  | 217 | 187 | 0.21 |  | 29.2 |  | 403 | 378 | 386 | 13 | 2.45 ± 1.24 | emission span across solvents (solvatochromism) [2]: 490-590 nm
Cc1c(C)n2c(/C=C/C=C/c3ccc(N(C)C)cc3)c(C)c(=O)n2c1=O [Compound 7m, 3-((1E,3E)-4-(4-(dimethylamino)phenyl)buta-1,3-dien-1-yl)-2,5,6-trimethyl-1H,7H-pyrazolo[1,2-a]pyrazole-1,7-dione] | 0.6 | 13.5 | 14% |  | high levels of solvatochromism | 620 | 640 |  | 640 | 204 | 210 | 0.20 |  | 27.9 |  | 383 | 410 | 436 | 15 | 0.42 ± 0.25 | Stokes shift ([3]; ACN/PBS): 204 nm; λabs [5]: 436 nm; Absorbance Wavelength ([5]; Table 11): 418 nm

From patent US20240336617A1, “Substituted Bimane Compounds and Methods of Use Thereof” (THE TRUSTEES OF THE UNIVERSITY OF PENNSYLVANIA, priority 2023, published 2024)
